Reference: patent publication US6875758B2, “Method of treating hyperlipidemic and hyperglycemic conditions in mammals using pregnadienols and pregnadienones” (Council of Scientific & Industrial Research, priority 1999, dated 2005)
“And” between values parts separate entries of the source, which are not always exact repeats. Equal values may be shown once.

Assays:
[1] = test system: Triton treated rats; assay: Cholesterol lowering in Triton treated rats; format: in vivo, Charles Foster rats; settings: Rattus norvegicus, ip; 50 mg/kg i.p.; read-out: % Change S. Chol.
Text: The primary hypolipidemic effect of these compounds was established in triton induced hyperlipidemia in Charles Foster rats. […] The cholesterol lowering effect of some representative compounds of pregrenadienols and pregrenadienones as compared to clofibrate and gugulsterone in triton treated Charles Foster rats is described in Table-2.

[2] = test system: normal rats; assay: Hypolipidemic activity in normal rats; format: in vivo; settings: 50 mg/kg
Description: In normal rats, 3β-hydroxypregna-5,16-dien-20one (2), at 50 mg/kg produced a significant lowering of serum cholesterol and triglycerides as describe in Table-3 below.

[3] = test system: hyperlipidemic rats (high fat diet); assay: Hypolipidemic activity in diet induced hyperlipidemic rats; format: in vivo; settings: for LDL-Cholesterol: calculated
Description: Twenty three normal male rats average weight 110-120 g were taken for study and were divided into four groups. Group l: animals received special diet and 3β-hydroxypregna-5,16-dien-20-one (2) 50 mg/kg p.o. in 1% gum acacia. Group II: animals received 3β-hydroxypregna-5,16-dien-20-one (2), 100 mg/kg p.o. in 1% gum acacia and special diet. Group III: animals received special fat diet and 1% gum acacia and served as control. Group IV: animals were fed with stock diet and served as normal control. All animals were sacrificed at the end of 36 days. Blood was drawn from the tail at 10 days and from the aorta at the time of sacrifice for estimation of serum cholesterol, triglycerides and HDL-cholesterol. LDL-cholesterol was calculated as described. [Roschlau, P. In: Methods of Enzymatic Analysis 4th ed., H. U. Bergmeyer, Ed (Academic Press, New York) 1975 p 1890; Wahlefield, W. A. In: Methods of Enzymatic Analysis, 4th ed.; H. U. Bergmeyer, Ed. (Academic Press, New York) 1974 p 1831.]

[4] = test system: hyperlipidemic male albino rabbits; assay: Hypolipidemic activity in cholesterol fed hyperlipidemic rabbits (90 days); format: in vivo
Description: Effect of 3β-Hydroxypregna-5,16-dien-20-one (2) was studied on hypercholesterolemic albino rabbits. Twelve male albino rabbits (approx 1.5-2 kg) on a stock diet were made hyperlipidemic by feeding daily cholesterol 0.5 g/kg in 2 ml of groundnut oil for 45 days and then blood was drawn from the marginal vein in the ear of rabbits for serum cholesterol and triglycerides estimation.
Two controlled experiments were carried out for a period of three months. In one set of experiments, the control group received 0.5 g/kg of cholesterol for 90 days and 3β-Hydroxypregna-5,16-dien-20-one (2) in dose of 100 mg/kg and 50 mg/kg while in control group (given only cholesterol) a massive rise of serum cholesterol and triglycerides were seen after 90 days, the addition of 3β-Hydroxypregna-5,16dien-20-one (2) at 50 and 100 mg/kg doses kept the rise well under control. The percentage decrease at 100 mg dose was 28% at 30 days to 52% at 90 days for cholesterol and 45 to 81% for triglycerides. In the 50 mg/kg dose group the decrease percentage ranged from 40% at 30 days to 50% at 90 days for cholesterol and 45% at 30 days to 75% at 90 days for triglyceride (Table6)

[5] = test system: cholesterol fed hyperlipidemic rats; assay: Lipid peroxidation in cholesterol fed hyperlipidemic rats; format: in vivo
[6] = test system: Human serum LDL; assay: Cu2+ induced oxidation of low density lipoprotein (TBA reactive lipid peroxides); format: biochemical; settings: for MDA (Exp.): 16 hr at 37° C., pH 7.4
Description: Human serum LDL was oxidized with Cu^′2 in different concentrations of test compound in 0.05 mole PBS, pH 7.4 for 16 hr at 37° C. Thiobarbituric acid reactive lipid peroxides are measured by standard procedure. […] Cu^′2 induced oxidation in LDL lipids are mainly due to the free OH radical during incubation.

[7] = test system: isoproterneol induced myocardial necrosis in rat; assay: Isoproterneol induced myocardial necrosis in rats; format: in vivo; settings: isoproterneol 85 mg/kg + drug 25 mg/kg p.o.
Text: The underlying cause of myocardial infarction is believed to be the progressive deposition of lipids and fibrotic material into the arterial wall. These pregnadienols and pregnadienous also provided cardiac protection as assessed in isoproterneol induced myocardial necrosis in rat model, which produces myocardial infarction due to an increased blood pressure and heart rate.

[8] = 50 mg/kg + cholesterol 0.5 g/kg, day 30
[9] = 50 mg/kg + cholesterol 0.5 g/kg, day 60
[10] = 50 mg/kg + cholesterol 0.5 g/kg, day 90
[11] = 100 mg/kg + cholesterol 0.5 g/kg, day 30
[12] = 100 mg/kg + cholesterol 0.5 g/kg, day 60
[13] = 100 mg/kg + cholesterol 0.5 g/kg, day 90

## CC(=O)C1=CC[C@H]2[C@@H]3CC=C4C[C@@H](O)CC[C@]4(C)[C@H]3CC[C@]12C [Compound 2, 3β-Hydroxypregna-5,16-dien-20-one]
[1]
  change in vivo at 50 mg/kg: -46%
[2]; 0 Days
  Serum Cholesterol: 71.5 ± 1.8 mg %
[2]; 30 Days
  Serum Cholesterol: 43.2 ± 2.9 mg %
  Serum Cholesterol % Fall: 40%
  Serum Triglycerides: 42.0 ± 2.8 mg %
  Serum Triglycerides % Fall compared to control: 35%
[3]; 50 mg/kg + HFD, Day 0
  HDL-Cholesterol: 34.8 ± 5.8 mg %
  LDL-Cholesterol: 24.5 ± 14.2 mg %
[3]; 50 mg/kg + HFD, Day 36
  HDL-Cholesterol: 37.57 ± 2.8 mg %
  HDL-Cholesterol % Change: 181%
  LDL-Cholesterol: 123.87 ± 14.0 mg %
[3]; 50 mg/kg p.o. + HFD, day 0
  Serum Cholesterol: 69.1 ± 9.9 mg %
  Serum Triglycerides: 48.8 ± 7.0 mg %
[3]; 50 mg/kg p.o. + HFD, day 10
  Serum Cholesterol: 212.4 ± 23.8 mg %
  Serum Cholesterol % Decrease (compared to group III, HFD): 16%
[3]; 50 mg/kg p.o. + HFD, day 36
  Serum Cholesterol: 165 ± 26.7 mg %
  Serum Cholesterol % Decrease (compared to group III, HFD): 31%
  Serum Triglycerides: 61.5 ± 10.5 mg %
  Serum Triglycerides % Decrease (compared to group III, HFD): 55%
[3]; 100 mg/kg + HFD, Day 0
  HDL-Cholesterol: 43.4 ± 8.3 mg %
  LDL-Cholesterol: 10.02 ± 8.5 mg %
[3]; 100 mg/kg + HFD, Day 36
  HDL-Cholesterol: 47.2 ± 3.7 mg %
  HDL-Cholesterol % Change: 161%
  LDL-Cholesterol: 48.64 ± 5.1 mg %
[3]; 100 mg/kg p.o. + HFD, day 0
  Serum Cholesterol: 60.8 ± 10.3 mg %
  Serum Triglycerides: 50 ± 7.1 mg %
[3]; 100 mg/kg p.o. + HFD, day 10
  Serum Cholesterol: 145.5 ± 10.6 mg %
  Serum Cholesterol % Decrease (compared to group III, HFD): 48%
[3]; 100 mg/kg p.o. + HFD, day 36
  Serum Cholesterol: 106.4 ± 4.6 mg %
  Serum Cholesterol % Decrease (compared to group III, HFD): 59%
  Serum Triglycerides: 53.0 ± 7.5 mg %
  Serum Triglycerides % Decrease (compared to group III, HFD): 62%
[4]; [8]
  S. Cholesterol: 190.5 mg %
  S. Triglycerides: 79.5 mg %
[4]; [9]
  S. Cholesterol: 305.5 mg %
  S. Triglycerides: 67.0 mg %
[4]; [10]
  S. Cholesterol: 660.3 mg %
  S. Triglycerides: 56.5 mg %
[4]; 50 mg/kg, day 30
  S. Cholesterol % Decrease vs cholesterol control: 40%
  S. Triglycerides % Decrease vs cholesterol control: 45%
[4]; 50 mg/kg, day 60
  S. Cholesterol % Decrease vs cholesterol control: 43%
  S. Triglycerides % Decrease vs cholesterol control: 64%
[4]; 50 mg/kg, day 90
  S. Cholesterol % Decrease vs cholesterol control: 50% and 51%
  S. Triglycerides % Decrease vs cholesterol control: 75% and 76%
[4]; [11]
  S. Cholesterol: 213.3 mg %
  S. Triglycerides: 79.0 mg %
[4]; [12]
  S. Cholesterol: 309.3 mg %
  S. Triglycerides: 54.0 mg %
[4]; [13]
  S. Cholesterol: 633.7 mg %
  S. Triglycerides: 44.2 mg %
[4]; 100 mg/kg, day 30
  S. Cholesterol % Decrease vs cholesterol control: 28%
  S. Triglycerides % Decrease vs cholesterol control: 45% and 46%
[4]; 100 mg/kg, day 60
  S. Cholesterol % Decrease vs cholesterol control: 42%
  S. Triglycerides % Decrease vs cholesterol control: 64%
[4]; 100 mg/kg, day 90
  S. Cholesterol % Decrease vs cholesterol control: 52% and 53%
  S. Triglycerides % Decrease vs cholesterol control: 81%
[5]; cholesterol + drug 25 mg/kg
  HDL lipid peroxides: 125 ± 10 n mol MDA/dl
  HDL lipid peroxides % reversal as compared with cholesterol fed rats: (−9) %
  LDL lipid peroxides: 421 ± 20 n mol MDA/dl
  LDL lipid peroxides % reversal as compared with cholesterol fed rats: (−30) %
  Liver lipid peroxides: 212 ± 16 n mol MDA/g
  Liver lipid peroxides % reversal as compared with cholesterol fed rats: (−23) %
  Serum lipid peroxides: 931.5 ± 51 n mol MDA/dl
  Serum lipid peroxides % reversal as compared with cholesterol fed rats: (−24) %
  VLDL lipid peroxides: 310 ± 15 n mol MDA/dl
  VLDL lipid peroxides % reversal as compared with cholesterol fed rats: (−18) %
[5]; cholesterol fed animals, simultaneous treatment
  lipid peroxide levels in serum VLDL, LDL and liver (in words): significant reversal
[6]; 2.5 μmol/ml
  % inhibition of LDL oxidation: (26) %
  MDA (Exp.): 41.4 ± 1.7 n mol MDA/mg protein
[6]; 5.0 μmol/ml
  % inhibition of LDL oxidation: (49) %
  MDA (Exp.): 28.7 ± 4.0 n mol MDA/mg protein
[6]; 10.0 μmol/ml
  % inhibition of LDL oxidation: (74) %
  MDA (Exp.): 10.6 ± 0.5 n mol MDA/mg protein
[6]; 20 μmol/ml
  % inhibition of LDL oxidation: (89) %
  MDA (Exp.): 4.0 ± 0.5 n mol MDA/mg protein
[6]; tested concentrations
  generation of LDL lipid peroxide (in words): inhibit the generation of LDL lipid peroxide in concentration dependent manner
[7]
  Heart Ca. - ATPase % Protection: 30.2%
  Heart Glycogen % Protection: 25.1%
  Heart Lipid peroxide % Protection: 72.6%
  Heart Phospholipase % Protection: 74.2%
  Serum Alkaline Phosphatase % Protection: 24.0%
  Serum CPK % Protection: 35.7%
  Serum GOT % Protection: 27.0%
  Serum GPT % Protection: 22.7%
